Source: ChEMBL document CHEMBL5653631, “A Potent and Selective ULK1 Inhibitor Suppresses Autophagy and Sensitizes Cancer Cells to Nutrient Stress” (iScience, 2018)
Blank lines part the entries; values can stand above or below the compound they belong to.

How the values were obtained:
[1] = target: Dual specificity protein kinase CLK3 (Homo sapiens) (UniProt P49761); experiment: Inhibition of human recombinant CLK3 at 500 nM in presence of ATP by radiometric assay relative to control
[2] = target: T1, Ephrin type-B receptor 3 (Homo sapiens) (UniProt P54753); experiment: Inhibition of human recombinant EphB3 at 15 nM related to control ULK1
T1 sequence (whole entry): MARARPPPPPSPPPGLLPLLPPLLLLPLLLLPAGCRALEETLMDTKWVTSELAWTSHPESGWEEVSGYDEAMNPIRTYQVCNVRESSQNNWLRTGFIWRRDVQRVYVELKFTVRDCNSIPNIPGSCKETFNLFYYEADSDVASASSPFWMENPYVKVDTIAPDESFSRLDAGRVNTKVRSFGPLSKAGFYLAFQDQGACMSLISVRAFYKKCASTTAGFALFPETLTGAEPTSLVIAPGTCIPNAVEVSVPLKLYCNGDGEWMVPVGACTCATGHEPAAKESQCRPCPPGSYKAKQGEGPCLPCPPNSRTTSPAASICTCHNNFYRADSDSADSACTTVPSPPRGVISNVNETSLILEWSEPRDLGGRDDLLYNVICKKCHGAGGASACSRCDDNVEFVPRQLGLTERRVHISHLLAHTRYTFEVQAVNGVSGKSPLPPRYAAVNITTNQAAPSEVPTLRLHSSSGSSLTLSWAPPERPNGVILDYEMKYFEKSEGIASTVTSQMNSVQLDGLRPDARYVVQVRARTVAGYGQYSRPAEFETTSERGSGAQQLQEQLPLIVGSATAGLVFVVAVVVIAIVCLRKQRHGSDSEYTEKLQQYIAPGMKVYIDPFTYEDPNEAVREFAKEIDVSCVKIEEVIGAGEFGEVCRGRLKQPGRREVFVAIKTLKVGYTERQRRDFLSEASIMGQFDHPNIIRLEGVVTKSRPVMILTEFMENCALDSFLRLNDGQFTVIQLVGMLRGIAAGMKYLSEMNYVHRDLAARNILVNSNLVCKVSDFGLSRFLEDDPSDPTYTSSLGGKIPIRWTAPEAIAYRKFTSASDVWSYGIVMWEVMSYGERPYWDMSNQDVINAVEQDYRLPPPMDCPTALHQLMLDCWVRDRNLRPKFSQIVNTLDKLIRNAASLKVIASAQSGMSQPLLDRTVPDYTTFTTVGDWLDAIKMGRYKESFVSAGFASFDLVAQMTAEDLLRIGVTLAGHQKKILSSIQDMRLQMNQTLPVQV

[3] = target: T2, Cytoplasmic tyrosine-protein kinase BMX (Homo sapiens) (UniProt P51813); experiment: Inhibition of human recombinant BMX at 15 nM related to control ULK1
T2 sequence (whole entry): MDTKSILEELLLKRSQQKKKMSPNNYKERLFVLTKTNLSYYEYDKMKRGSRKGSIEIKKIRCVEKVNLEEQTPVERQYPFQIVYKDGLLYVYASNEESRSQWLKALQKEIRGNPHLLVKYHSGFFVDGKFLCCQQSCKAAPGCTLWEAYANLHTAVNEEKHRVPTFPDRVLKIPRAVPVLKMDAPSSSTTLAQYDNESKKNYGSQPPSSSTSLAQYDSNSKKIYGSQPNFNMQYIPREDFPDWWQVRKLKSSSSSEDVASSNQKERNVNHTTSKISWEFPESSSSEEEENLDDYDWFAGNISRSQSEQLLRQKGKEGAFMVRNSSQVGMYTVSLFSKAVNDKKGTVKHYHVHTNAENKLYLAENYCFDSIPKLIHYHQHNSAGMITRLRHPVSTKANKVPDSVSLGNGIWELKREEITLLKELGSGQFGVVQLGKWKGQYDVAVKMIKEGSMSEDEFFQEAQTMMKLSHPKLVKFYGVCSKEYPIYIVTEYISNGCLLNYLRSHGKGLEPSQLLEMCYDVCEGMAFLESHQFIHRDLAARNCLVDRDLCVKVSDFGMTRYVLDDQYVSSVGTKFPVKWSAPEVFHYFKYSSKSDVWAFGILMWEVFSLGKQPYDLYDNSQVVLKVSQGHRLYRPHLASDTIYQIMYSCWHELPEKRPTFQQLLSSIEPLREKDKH

[4] = target: T3, SNF-related serine/threonine-protein kinase (Homo sapiens) (UniProt Q9NRH2); experiment: Inhibition of human recombinant SNRK at 15 nM in presence of ATP by radiometric assay relative to control
T3 sequence (whole entry): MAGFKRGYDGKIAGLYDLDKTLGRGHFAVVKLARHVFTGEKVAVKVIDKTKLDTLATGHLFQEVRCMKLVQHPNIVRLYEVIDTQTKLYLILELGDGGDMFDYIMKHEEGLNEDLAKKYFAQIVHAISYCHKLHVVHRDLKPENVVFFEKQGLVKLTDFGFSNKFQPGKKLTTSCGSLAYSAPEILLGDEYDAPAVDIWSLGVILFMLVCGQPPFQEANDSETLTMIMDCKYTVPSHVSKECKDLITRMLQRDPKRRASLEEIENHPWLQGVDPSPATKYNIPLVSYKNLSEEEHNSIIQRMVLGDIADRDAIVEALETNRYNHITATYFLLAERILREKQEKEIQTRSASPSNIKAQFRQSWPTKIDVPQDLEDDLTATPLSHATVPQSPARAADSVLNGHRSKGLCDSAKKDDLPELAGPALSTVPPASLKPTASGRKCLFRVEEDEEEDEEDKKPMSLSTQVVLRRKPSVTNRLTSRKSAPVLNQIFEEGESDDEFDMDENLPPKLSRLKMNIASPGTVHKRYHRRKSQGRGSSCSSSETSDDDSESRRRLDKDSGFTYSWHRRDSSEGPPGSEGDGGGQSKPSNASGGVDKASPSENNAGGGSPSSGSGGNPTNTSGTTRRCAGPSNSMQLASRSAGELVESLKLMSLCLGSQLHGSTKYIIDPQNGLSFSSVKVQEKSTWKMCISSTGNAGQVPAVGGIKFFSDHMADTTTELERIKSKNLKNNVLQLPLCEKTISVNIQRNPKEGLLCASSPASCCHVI

[5] = target: Receptor tyrosine-protein kinase erbB-2 (Homo sapiens) (UniProt P04626); experiment: Inhibition of human recombinant ErbB2 at 40 nM related to control ULK1
[6] = target: Dual specificity tyrosine-phosphorylation-regulated kinase 1A (Homo sapiens) (UniProt Q13627); experiment: Inhibition of human recombinant DYRK1A at 40 nM related to control ULK1

Receptor tyrosine-protein kinase erbB-2 (Homo sapiens), sequence (P04626 whole entry): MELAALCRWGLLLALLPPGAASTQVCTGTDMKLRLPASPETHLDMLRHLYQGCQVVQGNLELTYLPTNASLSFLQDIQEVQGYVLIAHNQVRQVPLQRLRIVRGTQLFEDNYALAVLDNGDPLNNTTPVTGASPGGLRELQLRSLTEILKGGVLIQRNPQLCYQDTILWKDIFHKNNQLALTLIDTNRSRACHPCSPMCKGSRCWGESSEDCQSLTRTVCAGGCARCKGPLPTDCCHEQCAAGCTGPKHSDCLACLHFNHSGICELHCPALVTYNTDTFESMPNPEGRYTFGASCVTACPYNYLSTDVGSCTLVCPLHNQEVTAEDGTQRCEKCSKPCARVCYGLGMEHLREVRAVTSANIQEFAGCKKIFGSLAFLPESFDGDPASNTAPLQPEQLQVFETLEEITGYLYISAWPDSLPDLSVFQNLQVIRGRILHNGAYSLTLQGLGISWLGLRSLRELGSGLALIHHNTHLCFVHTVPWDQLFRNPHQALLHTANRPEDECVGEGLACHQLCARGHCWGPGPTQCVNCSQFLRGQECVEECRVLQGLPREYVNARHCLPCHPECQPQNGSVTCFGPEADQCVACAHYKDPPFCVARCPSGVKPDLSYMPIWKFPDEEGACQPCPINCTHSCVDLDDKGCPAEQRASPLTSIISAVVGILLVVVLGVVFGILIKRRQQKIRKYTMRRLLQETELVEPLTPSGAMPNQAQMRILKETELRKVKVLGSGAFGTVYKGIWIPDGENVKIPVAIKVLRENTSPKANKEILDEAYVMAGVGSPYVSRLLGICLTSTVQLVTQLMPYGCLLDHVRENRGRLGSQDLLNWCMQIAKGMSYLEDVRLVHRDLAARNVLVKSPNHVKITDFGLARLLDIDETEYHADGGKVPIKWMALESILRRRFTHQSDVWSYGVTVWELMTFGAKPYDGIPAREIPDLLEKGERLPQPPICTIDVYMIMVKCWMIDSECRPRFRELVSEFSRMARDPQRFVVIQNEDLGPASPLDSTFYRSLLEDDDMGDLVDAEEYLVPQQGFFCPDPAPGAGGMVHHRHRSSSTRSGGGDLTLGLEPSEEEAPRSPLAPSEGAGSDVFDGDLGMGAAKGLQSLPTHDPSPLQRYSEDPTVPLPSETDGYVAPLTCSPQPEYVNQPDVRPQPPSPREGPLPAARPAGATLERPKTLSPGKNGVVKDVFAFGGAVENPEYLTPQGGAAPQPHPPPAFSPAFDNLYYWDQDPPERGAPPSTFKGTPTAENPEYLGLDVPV
Dual specificity protein kinase CLK3 (Homo sapiens), sequence (P49761 whole entry, looked up): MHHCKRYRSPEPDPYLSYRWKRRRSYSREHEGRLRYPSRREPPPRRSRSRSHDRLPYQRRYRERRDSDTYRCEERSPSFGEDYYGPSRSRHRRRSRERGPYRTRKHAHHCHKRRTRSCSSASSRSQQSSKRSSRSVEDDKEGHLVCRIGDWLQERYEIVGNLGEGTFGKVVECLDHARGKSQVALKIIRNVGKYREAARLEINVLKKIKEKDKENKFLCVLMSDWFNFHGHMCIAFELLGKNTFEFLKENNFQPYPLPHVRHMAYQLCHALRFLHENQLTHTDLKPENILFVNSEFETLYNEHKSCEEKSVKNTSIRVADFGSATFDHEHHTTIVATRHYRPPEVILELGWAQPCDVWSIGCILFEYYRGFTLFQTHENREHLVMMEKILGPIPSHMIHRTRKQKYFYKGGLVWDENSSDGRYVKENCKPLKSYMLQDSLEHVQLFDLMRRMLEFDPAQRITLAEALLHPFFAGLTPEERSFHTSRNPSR

inhibition [1]: 0%
Compound: CNC(=O)c1ccccc1Oc1nc(Nc2cc(OC)c(OC)c(OC)c2)ncc1Br

fold change (FC) [2]: 0
fold change (FC) [3]: 0.07
inhibition [4]: 8%
Compound: CC(C)[C@H](NC(=O)c1cc(-c2cnn3cc(-c4ccc(OCCN5CCCCC5)cc4)cnc23)cs1)C(F)(F)F

fold change (FC) [5]: 0
fold change (FC) [6]: 0.59
Compound: O=C(N[C@@H](C1CC1)C(F)(F)F)c1cc(-c2cnn3cc(-c4ccc(F)cc4)cnc23)cs1
